Data taken from publication PMC5247677 (Scientific Reports, 2017).

What was measured:
[1] = target: T1, hNaV1.3 (Homo sapiens, UniProt Q9NY46); assay: cell-based; details: whole cell electrophysiology, HEK293; pH 7.4, 0.1% BSA; holding −80 mV, test −20 mV; incubation 5–40 min; mean ± SEM, n = 3–9 cells; read-out: pIC50 at hNaV1.3 (converted)
T1 construct: host or cells: HEK293

[2] = target: T2, mNaV1.7 (Mus musculus, UniProt Q62205); assay: Whole-cell patch-clamp (PatchXpress), mNaV1.7; type: cell-based; details: HEK293, pH 7.4, holding −120 mV, 20 ms test pulse 0 mV, mean ± SEM, read-out: pIC50 at mouse NaV1.7 (converted)
T2 construct: host or cells: HEK293

[3] = target: T3, rNaV1.7 (Rattus norvegicus, UniProt O08562); assay: Whole-cell patch-clamp (QPatch-16), rNaV1.7; type: cell-based; details: QPatch-16, HEK293; pH 7.4, 0.1% BSA; holding −80 mV, test −20 mV; mean ± SEM; read-out: pIC50 at rat NaV1.7 (converted)
T3 construct: expressed in transfected cells; host or cells: HEK293

[4] = system: motor performance in rats; type: in vivo, rat (Sprague Dawley)
Experimental: FCA was administered undiluted in a volume of 150 μL by i.pl injection in rats. Behavioural assessment was performed 3 days post-injection of FCA. For intrathecal administration, a polyethylene lumbar catheter was inserted into the intrathecal space between vertebrae L4–L5. […] Mechanical paw withdrawal thresholds were determined using manual von Frey with a series of calibrated filaments 0.4–15.1 g (Stoelting Co., Wood Dale, USA) using the up-down method. Paw withdrawal latency to a thermal stimulus was determined using the Hargreaves test (Ugo Basile, Camerio VA, Italy). Motor co-ordination was assessed using an accelerating rotarod (Ugo Basile). Latency to fall was recorded in seconds, with a maximal cut off of 300 s. At the completion of experiments, catheter placement was checked by injection of lignocaine (2%, 10 μL) and observation of rapid bilateral hind limb paralysis.

[5] = target: α7 nAChR (Homo sapiens, UniProt P36544); assay: FLIPR calcium responses in SH-SY5Y cells, α7 nAChR; type: cell-based; details: FLIPR Tetra, choline with PNU120596, 0.1–10 μM, 5 min pre-treatment
α7 nAChR, sequence (P36544 23-502): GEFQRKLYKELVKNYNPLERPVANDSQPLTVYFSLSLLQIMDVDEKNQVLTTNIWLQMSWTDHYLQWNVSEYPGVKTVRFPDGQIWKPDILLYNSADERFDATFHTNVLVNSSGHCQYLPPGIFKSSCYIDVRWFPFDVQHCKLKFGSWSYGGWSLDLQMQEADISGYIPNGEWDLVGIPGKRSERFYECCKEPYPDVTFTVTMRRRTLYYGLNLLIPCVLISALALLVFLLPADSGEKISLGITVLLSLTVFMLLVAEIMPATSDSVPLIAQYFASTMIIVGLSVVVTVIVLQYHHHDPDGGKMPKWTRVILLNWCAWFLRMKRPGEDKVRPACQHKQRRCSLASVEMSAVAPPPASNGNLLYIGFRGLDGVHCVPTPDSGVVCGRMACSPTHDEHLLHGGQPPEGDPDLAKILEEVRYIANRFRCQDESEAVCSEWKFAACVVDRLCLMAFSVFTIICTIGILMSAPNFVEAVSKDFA

[6] = precluded chronic testing
[7] = target: T4, hNaV1.8 (Homo sapiens, UniProt Q9Y5Y9); assay: cell-based; details: whole cell patch-clamp
T4 construct: host or cells: CHO

[8] = target: T5, rKV2.1 (Rattus norvegicus, UniProt P15387); assay: Two-electrode voltage-clamp in Xenopus oocytes, wild-type rKV2.1; type: cell-based; details: Xenopus laevis oocytes, pH 7.6, 22 °C, 0.1% BSA
T5 construct: expressed in transfected cells; host or cells: Xenopus laevis oocytes
T5 sequence (P15387 whole entry): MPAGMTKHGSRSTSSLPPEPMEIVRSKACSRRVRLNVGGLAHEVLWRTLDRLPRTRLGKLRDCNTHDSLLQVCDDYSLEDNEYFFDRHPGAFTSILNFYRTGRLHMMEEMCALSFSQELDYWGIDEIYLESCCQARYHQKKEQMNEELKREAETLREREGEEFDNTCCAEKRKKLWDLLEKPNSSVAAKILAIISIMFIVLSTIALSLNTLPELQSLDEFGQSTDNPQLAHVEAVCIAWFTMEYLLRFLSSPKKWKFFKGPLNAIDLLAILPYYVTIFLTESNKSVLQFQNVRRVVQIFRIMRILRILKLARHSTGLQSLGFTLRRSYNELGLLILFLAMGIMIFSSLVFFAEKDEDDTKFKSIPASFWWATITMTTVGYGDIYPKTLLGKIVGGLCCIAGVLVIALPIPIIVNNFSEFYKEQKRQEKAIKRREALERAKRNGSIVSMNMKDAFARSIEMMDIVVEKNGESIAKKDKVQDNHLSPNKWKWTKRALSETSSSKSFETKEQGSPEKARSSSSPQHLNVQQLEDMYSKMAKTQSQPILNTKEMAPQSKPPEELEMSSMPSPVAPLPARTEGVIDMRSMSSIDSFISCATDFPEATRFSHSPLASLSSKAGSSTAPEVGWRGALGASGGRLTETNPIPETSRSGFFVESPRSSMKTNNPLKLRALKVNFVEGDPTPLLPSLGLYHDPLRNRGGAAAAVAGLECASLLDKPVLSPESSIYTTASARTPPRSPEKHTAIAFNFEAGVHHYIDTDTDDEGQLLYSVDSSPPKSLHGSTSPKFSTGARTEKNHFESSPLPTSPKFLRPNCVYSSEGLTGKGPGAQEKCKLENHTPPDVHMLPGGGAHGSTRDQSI

[9] = target: T6, hNaV1.4 (Homo sapiens, UniProt P35499); assay: cell-based; details: whole cell electrophysiology, HEK293; pH 7.4, 0.1% BSA; holding −80 mV, test −20 mV; incubation 5–40 min; mean ± SEM, n = 3–9 cells; read-out: pIC50 at hNaV1.4 (converted)
T6 construct: host or cells: HEK293
T6 sequence (P35499 whole entry): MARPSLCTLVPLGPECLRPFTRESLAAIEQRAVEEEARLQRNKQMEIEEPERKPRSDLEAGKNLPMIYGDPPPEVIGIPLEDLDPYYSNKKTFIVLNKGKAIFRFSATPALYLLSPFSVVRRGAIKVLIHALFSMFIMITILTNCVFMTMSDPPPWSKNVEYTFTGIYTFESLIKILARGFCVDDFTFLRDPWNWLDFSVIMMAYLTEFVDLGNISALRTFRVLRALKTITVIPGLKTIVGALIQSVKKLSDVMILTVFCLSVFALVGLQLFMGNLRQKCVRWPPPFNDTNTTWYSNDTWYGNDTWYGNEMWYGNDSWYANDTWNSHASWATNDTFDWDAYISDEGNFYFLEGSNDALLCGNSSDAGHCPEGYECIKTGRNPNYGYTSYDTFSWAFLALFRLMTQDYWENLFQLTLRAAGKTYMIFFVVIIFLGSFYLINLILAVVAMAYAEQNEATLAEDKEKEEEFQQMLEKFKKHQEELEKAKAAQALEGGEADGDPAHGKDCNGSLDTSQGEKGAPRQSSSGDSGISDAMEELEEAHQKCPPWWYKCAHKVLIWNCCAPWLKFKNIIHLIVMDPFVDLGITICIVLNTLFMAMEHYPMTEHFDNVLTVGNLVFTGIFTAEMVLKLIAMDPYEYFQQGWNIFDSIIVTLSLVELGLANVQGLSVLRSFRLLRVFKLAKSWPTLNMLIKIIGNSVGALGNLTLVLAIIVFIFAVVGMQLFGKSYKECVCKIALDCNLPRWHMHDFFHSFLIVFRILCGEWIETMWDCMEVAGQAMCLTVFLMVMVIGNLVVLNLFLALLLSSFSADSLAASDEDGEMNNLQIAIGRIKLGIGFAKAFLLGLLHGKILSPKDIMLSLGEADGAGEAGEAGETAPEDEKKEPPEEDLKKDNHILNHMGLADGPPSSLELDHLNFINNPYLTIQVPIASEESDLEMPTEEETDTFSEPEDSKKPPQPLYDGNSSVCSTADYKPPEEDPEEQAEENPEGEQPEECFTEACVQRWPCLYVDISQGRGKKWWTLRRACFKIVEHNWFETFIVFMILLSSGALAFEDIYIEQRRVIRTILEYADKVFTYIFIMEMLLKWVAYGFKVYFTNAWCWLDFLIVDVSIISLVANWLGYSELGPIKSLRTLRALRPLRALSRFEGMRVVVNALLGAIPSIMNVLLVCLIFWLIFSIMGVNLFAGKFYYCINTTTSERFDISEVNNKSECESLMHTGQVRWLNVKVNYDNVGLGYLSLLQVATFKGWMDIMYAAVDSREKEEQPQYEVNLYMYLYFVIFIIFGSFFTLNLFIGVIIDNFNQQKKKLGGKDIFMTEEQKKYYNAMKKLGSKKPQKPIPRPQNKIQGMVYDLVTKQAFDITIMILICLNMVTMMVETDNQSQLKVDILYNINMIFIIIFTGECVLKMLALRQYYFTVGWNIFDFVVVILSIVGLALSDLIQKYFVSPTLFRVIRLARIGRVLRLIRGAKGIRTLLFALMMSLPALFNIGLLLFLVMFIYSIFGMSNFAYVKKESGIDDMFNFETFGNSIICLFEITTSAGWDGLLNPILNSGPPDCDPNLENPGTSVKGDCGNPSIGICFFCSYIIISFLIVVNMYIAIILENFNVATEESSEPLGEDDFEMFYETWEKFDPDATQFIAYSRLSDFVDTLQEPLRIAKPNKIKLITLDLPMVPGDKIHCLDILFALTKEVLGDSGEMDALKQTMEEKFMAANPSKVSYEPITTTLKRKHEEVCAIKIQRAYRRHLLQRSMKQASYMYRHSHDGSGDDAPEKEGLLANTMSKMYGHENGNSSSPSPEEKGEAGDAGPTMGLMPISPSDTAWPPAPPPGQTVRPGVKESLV

[10] = target: T7, hNaV1.6 (Homo sapiens, UniProt Q9UQD0); assay: cell-based; details: whole cell electrophysiology, HEK293; pH 7.4, 0.1% BSA; holding −80 mV, test −20 mV; incubation 5–40 min; mean ± SEM, n = 3–9 cells; read-out: pIC50 at hNaV1.6 (converted)
T7 construct: host or cells: HEK293
T7 sequence (Q9UQD0 whole entry): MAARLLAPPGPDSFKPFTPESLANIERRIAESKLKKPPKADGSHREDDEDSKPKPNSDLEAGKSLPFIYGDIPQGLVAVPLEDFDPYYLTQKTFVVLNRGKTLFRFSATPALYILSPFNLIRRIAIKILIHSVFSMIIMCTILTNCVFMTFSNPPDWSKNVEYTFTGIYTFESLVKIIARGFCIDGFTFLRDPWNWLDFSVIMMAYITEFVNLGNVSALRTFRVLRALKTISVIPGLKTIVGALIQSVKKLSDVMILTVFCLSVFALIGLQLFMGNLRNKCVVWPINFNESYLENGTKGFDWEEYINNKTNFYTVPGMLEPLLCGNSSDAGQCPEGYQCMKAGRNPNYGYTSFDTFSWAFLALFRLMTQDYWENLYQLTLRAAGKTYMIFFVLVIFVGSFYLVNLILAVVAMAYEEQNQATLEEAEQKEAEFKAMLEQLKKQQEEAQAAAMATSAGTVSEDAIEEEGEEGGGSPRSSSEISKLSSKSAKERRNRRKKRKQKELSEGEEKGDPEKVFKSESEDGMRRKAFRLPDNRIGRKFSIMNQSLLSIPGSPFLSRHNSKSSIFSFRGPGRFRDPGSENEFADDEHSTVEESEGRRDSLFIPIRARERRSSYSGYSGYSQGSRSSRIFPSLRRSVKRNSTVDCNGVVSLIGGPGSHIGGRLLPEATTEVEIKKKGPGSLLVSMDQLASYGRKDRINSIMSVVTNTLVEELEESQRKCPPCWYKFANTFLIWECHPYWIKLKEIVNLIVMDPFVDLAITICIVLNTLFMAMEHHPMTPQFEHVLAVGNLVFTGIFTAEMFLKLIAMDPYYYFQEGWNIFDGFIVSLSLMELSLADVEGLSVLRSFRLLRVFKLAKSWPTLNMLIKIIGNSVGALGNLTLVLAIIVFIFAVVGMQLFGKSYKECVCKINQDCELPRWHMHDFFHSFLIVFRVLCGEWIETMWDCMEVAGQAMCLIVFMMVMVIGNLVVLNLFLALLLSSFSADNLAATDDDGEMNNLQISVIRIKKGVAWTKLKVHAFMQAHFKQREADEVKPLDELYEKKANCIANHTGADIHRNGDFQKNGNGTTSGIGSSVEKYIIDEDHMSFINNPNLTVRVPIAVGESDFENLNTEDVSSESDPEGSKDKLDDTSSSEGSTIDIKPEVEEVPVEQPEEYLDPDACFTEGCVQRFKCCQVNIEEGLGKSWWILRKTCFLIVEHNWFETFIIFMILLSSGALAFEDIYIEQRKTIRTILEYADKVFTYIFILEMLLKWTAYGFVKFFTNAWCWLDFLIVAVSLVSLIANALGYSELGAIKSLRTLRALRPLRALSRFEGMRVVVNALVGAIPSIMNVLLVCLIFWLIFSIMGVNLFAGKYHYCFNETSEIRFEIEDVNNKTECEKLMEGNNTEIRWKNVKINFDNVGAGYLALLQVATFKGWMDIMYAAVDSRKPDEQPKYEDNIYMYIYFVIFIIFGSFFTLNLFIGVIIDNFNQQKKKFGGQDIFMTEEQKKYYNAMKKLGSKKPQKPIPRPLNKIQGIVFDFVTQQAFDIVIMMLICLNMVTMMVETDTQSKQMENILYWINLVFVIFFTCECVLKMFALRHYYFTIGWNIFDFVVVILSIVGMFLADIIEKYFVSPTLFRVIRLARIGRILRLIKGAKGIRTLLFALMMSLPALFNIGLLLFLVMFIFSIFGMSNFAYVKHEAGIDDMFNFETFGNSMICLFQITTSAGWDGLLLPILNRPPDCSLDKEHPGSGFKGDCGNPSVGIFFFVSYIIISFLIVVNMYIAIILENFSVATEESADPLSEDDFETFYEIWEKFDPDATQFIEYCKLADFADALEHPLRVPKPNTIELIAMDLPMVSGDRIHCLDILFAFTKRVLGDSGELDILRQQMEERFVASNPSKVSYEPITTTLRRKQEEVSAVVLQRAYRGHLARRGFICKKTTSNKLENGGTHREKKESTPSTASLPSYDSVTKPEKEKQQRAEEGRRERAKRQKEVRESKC

[11] = target: T8, hNaV1.2 (Homo sapiens, UniProt Q99250); assay: cell-based; details: whole cell electrophysiology, HEK293; pH 7.4, 0.1% BSA; holding −80 mV, test −20 mV; incubation 5–40 min; mean ± SEM, n = 3–9 cells; read-out: pIC50 at hNaV1.2 (converted)
T8 construct: host or cells: HEK293

[12] = system: NaV1.7; details: 0.3–3 mg/kg i.p., mice
Experimental: For behavioural assessment we used adult male C57BL/6 J mice or Sprague Dawley rats aged 5–8 weeks. Animals were housed in groups of 2–4 per cage, under 12 h light-dark cycles with standard rodent chow and water ad libitum. All assessments were performed by a blinded investigator unaware of the treatment each animal received. Ethical approval for in vivo experiments in animals was obtained from the University of Queensland, University of Sydney or United Kingdom Home Office animal ethics committee. Experiments involving animals were conducted in accordance with the International Association for the Study of Pain Guidelines for the Use of Animals in Research and the Australian Code of Practice for the Care and Use of Animals for Scientific Purposes, 8th edition (2013).

[13] = target: α3 nAChR (Homo sapiens, UniProt P32297); assay: FLIPR calcium responses in SH-SY5Y cells, α3 nAChR; type: cell-based; details: FLIPR Tetra, nicotine 30 μM, 0.1–10 μM, 5 min pre-treatment
[14] = target: T9, hNaV1.9 (Homo sapiens, UniProt Q9UI33); assay: cell-based; details: PatchXpress, HEK293
T9 construct: host or cells: HEK293
Source text: Data were plotted and analyzed using GraphPad Prism, version 6.0. For concentration-response curves, a four-parameter Hill equation with variable Hill coefficient was fitted to the data. […] Data are presented as mean ± SEM.

[15] = target: T10, hNaV1.5 (Homo sapiens, UniProt Q14524); assay: cell-based; details: whole cell electrophysiology, HEK293; pH 7.4, 0.1% BSA; holding −80 mV, test −20 mV; incubation 5–40 min; mean ± SEM, n = 3–9 cells; read-out: pIC50 at hNaV1.5 (converted)
T10 construct: host or cells: HEK293

[16] = target: T11, hNaV1.1 (Homo sapiens, UniProt P35498); assay: cell-based; details: whole cell electrophysiology, HEK293; pH 7.4, 0.1% BSA; holding −80 mV, test −20 mV; incubation 5–40 min; mean ± SEM, n = 3–9 cells; read-out: pIC50 at hNaV1.1 (converted)
T11 construct: host or cells: HEK293

What does the source list for `CSCC[C@@H]1NC(=O)[C@H](Cc2ccc(O)cc2)NC(=O)[C@H](CCCNC(=N)N)NC(=O)[C@@H](NC(=O)[C@@H](N)CC(=O)O)CSSC[C@@H]2NC(=O)[C@@H]3CSSC[C@@H](C(=O)N[C@@H](C)C(=O)N[C@@H](Cc4c[nH]c5ccccc45)C(=O)N[C@@H](CC(=O)O)C(=O)N[C@@H](Cc4ccccc4)C(=O)N[C@H](C(=O)N[C@@H](Cc4ccccc4)C(=O)N[C@H](C(=O)O)[C@@H](C)O)[C@@H](C)O)NC(=O)[C@H](Cc4ccc(O)cc4)NC(=O)[C@H](CCCCN)NC(=O)[C@H](CCSC)NC(=O)[C@H](CCCCN)NC(=O)[C@H](CCCNC(=N)N)NC(=O)[C@H](CCCCN)NC(=O)[C@H](CSSC[C@H](NC(=O)[C@H](CC(=O)O)NC(=O)CNC(=O)[C@H](Cc4ccccc4)NC1=O)C(=O)N[C@@H](CCC(=O)O)C(=O)N[C@@H](CCCCN)C(=O)N[C@@H](CC(=O)O)C(=O)N[C@@H](CCC(=O)O)C(=O)N[C@@H](CC(=O)O)C(=O)N3)NC(=O)CNC(=O)[C@H](CC(C)C)NC(=O)[C@H](Cc1cnc[nH]1)NC(=O)[C@H](CCCCN)NC2=O` [Pn3a, μ-theraphotoxin-Pn3a]?
IC50 [1]: 209 nM; IC50 [2]: 4.37 nM; IC50 [3]: 1.48 nM; Rotarod % Baseline ([4]; 0.3 nmoles intrathecal, control 88 ± 7%, P > 0.05, unpaired t-test, n = 4–9): 91 ± 11%; motor effect ([4]; 1 nmole intrathecal, rats, data not shown): motor impairment was observed; IC50 [5]: > 10000 nM; pharmacokinetics [6]: poor pharmacokinetics; IC50 [7]: 49900 nM; IC50 [8]: > 300 nM; IC50 [9]: 145 nM; IC50 [10]: 129 nM; IC50 [11]: 123 nM; adverse effects [12]: absence of adverse effects; IC50 [13]: > 10000 nM; IC50 [14]: 2430 nM; IC50 [15]: 794 nM; IC50 [16]: 37.2 nM
